According to patent US20090203908A1, “Activator for Peroxisome Proliferator-Activated Receptor” (NIPPON CHEMIPHAR CO., LTD., priority 2005, published 2009):
Where two headings read alike, the source gives them in different places.

Legend:
hPPAR δ (LBD) = biological target: T1, hPPAR δ (LBD) (Homo sapiens, UniProt Q03181); assay: PPAR activating effect, GAL4-hPPARδ (LBD) luciferase reporter in CV-1 cells
T1 sequence (Q03181 211-439 limits assumed): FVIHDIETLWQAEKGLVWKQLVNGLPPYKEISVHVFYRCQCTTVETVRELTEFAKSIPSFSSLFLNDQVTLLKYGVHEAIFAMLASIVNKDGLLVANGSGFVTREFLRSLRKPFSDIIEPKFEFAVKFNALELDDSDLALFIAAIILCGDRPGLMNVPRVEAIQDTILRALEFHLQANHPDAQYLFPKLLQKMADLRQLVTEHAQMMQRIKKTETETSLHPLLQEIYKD
Protocol: (§1) For determining PPAR activating effects of the compounds according to the invention were measured by the following method:
(§2) After gene transfer utilizing a lipofection reagent DMRIE-C or Lipofectamin 2000 (Invitrogen), it is incubated for 42 hours in the presence of the test compound. Then, the luciferase activity and β-GAL activity are measured on the soluble cells. The luciferase activity is calibrated by the β-GAL activity.
(§3) The PPAR activating effects of test compounds (compounds of Examples) were measured by the following method:
(§4) After gene transfer utilizing a lipofection reagent DMRIE-C or Lipofectamin 2000 (Invitrogen), it is incubated for approx. 40 hours in the presence of the test compound. Then, the luciferase activity and β-GAL activity are measured on the soluble cells. The luciferase activity is calibrated by the β-GAL activity. […] Then, EC50 was obtained.

hPPAR α (LBD) = biological target: T2, hPPAR α (LBD) (Homo sapiens, UniProt Q07869); assay: PPAR activating effect, GAL4-hPPARα (LBD) luciferase reporter in CV-1 cells
T2 sequence (Q07869 239-466 limits assumed): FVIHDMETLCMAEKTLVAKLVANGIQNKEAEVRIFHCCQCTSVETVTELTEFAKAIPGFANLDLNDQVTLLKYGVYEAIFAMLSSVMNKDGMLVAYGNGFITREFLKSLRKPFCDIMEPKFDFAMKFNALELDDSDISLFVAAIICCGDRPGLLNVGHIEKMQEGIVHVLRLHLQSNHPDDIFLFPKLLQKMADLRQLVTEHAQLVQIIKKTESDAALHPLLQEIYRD
Protocol: as §1, §2, §3, §4

hPPAR γ (LBD) = biological target: T3, hPPAR γ (LBD) (Homo sapiens, UniProt P37231); assay: PPAR activating effect, GAL4-hPPARγ (LBD) luciferase reporter in CV-1 cells
T3 sequence (P37231 238-503 limits assumed): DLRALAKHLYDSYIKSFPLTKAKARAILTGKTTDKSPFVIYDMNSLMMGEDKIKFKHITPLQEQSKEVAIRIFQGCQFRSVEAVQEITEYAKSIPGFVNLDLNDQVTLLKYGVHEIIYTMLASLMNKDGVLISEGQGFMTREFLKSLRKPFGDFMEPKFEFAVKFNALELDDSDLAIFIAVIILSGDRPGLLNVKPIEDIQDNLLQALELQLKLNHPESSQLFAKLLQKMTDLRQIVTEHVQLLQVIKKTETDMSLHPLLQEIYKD
Protocol: as §1, §2, §3, §4

hPPAR α or γ or δ (LBD) = assay: PPAR activating effect, overall assessment over the subtypes (GAL4-hPPAR luciferase reporter in CV-1 cells); settings: summary of Table 17, PPARα and PPARγ
Protocol: as §1, §2, §3, §4

Row | Structure (SMILES) | EC50 (hPPAR δ (LBD); read-out: PPAR activity: EC50, δ, CV-1 cells, approx. 40 hours incubation, 100% control GW-501516 10^−7 M) [nM] | EC50 (hPPAR α (LBD)) [nM] | EC50 (hPPAR γ (LBD)) [nM] | EC50 (hPPAR δ (LBD)) [nM] | PPARα agonist effect (in words) (hPPAR α (LBD); summary of Table 17) | α/γ dual agonist effects (in words) (hPPAR α or γ or δ (LBD))
1 | COc1ccc(CC2SC(=O)NC2=O)cc1C(=O)NCc1ccc(C(F)(F)F)cc1 (stereo not shown) [KRP-297, reference compound] | 13900 | – | – | – | – | –
2 | Cc1ccc(N2CCN(Cc3nc(-c4ccc(C(F)(F)F)cc4)sc3CCC(=O)c3ccc(OC(C)(C)C(=O)O)c(C)c3)CC2)cc1 [Example 6, 2-[4-[3-[4-[4-(4-Methylphenyl)piperazin-1-yl-methyl]-2-(4-trifluoromethylphenyl)-5-thiazolyl]propionyl]-2-methylphenoxy]-2-methylpropionic Acid] | – | 550 | 490 | 4900 | – | –
3 | Cc1cc(C(=O)CCc2sc(-c3ccc(C(F)(F)F)cc3)nc2CN2CCN(c3ccc(C(F)(F)F)cc3)CC2)ccc1OC(C)(C)C(=O)O [Example 5, 2-[4-[3-[4-[4-(4-Trifluoromethylphenyl)-piperazin-1-ylmethyl]-2-(4-trifluoromethylphenyl)-5-thiazolyl]propionyl]-2-methylphenoxy]-2-methylpropionic Acid] | – | 90 | 3200 | 5200 | strong and selective PPARα agonist effect | –
4 | Cc1cc(C(=O)CCc2sc(-c3ccc(C(F)(F)F)cc3)nc2CN2CCN(c3ccc(C(C)C)cc3)CC2)ccc1OC(C)(C)C(=O)O [Example 11, 2-[4-[3-[4-[4-(4-Isopropylphenyl)piperazin-1-ylmethyl]-2-(4-trifluoromethylphenyl)-5-thiazolyl]propionyl]-2-methylphenoxy]-2-methylpropionic Acid] | – | 92 | 300 | 3000 | – | good α/γ dual agonist effects
5 | CCOc1ccc(N2CCN(Cc3nc(-c4ccc(C(F)(F)F)cc4)sc3CCC(=O)c3ccc(OC(C)(C)C(=O)O)c(C)c3)CC2)cc1 [Example 13, 2-[4-[3-[4-[4-(4-Ethoxyphenyl)piperazin-1-yl-methyl]-2-(4-trifluoromethylphenyl)-5-thiazolyl]propionyl]-2-methylphenoxy]-2-methylpropionic Acid] | – | 330 | 280 | 1100 | – | –
6 | Cc1cc(C(=O)CCc2sc(-c3ccc(C(F)(F)F)cc3)nc2CN2CCN(c3ccc(OC(F)(F)F)cc3)CC2)ccc1OC(C)(C)C(=O)O [Example 15, 2-[4-[3-[4-[4-(4-Trifluoromethoxyphenyl)piperazin-1-ylmethyl]-2-(4-trifluoromethylphenyl)-5-thiazol-yl]propionyl]-2-methylphenoxy]-2-methylpropionic Acid] | – | 290 | 750 | 6300 | – | –
7 | COc1ccc(N2CCN(Cc3nc(-c4ccc(C(F)(F)F)cc4)sc3CCC(=O)c3ccc(OC(C)(C)C(=O)O)c(C)c3)CC2)cc1OC [Example 12, 2-[4-[3-[4-[4-(3,4-Dimethoxyphenyl)piperazin-1-ylmethyl]-2-(4-trifluoromethylphenyl)-5-thiazolyl]propionyl]-2-methylphenoxy]-2-methylpropionic Acid] | – | 940 | 1700 | 3800 | – | –
8 | Cc1cc(C(=O)CCc2sc(-c3ccc(C(F)(F)F)cc3)nc2CN2CCN(c3ccc(OC(C)C)cc3)CC2)ccc1OC(C)(C)C(=O)O [Example 16, 2-[4-[3-[4-[4-(4-Isopropyloxyphenyl)piperazin-1-ylmethyl]-2-(4-trifluoromethylphenyl)-5-thiazolyl]propionyl]-2-methylphenoxy]-2-methylpropionic Acid] | – | 180 | 290 | 2300 | – | good α/γ dual agonist effects
9 | COc1ccc(N2CCN(Cc3nc(-c4ccc(C(F)(F)F)cc4)sc3CCC(=O)c3ccc(OC(C)(C)C(=O)O)c(C)c3)CC2)cc1 [Example 3, 2-[4-[3-[4-[4-(4-Methoxyphenyl)piperazin-1-yl-methyl]-2-(4-trifluoromethylphenyl)-5-thiazolyl]propionyl]-2-methylphenoxy]-2-methylpropionic Acid] | – | > 10000 | 660 | 920 | – | –
10 | COc1cccc(N2CCN(Cc3nc(-c4ccc(C(F)(F)F)cc4)sc3CCC(=O)c3ccc(OC(C)(C)C(=O)O)c(C)c3)CC2)c1 [Example 4, 2-[4-[3-[4-[4-(3-Methoxyphenyl)piperazin-1-yl-methyl]-2-(4-trifluoromethylphenyl)-5-thiazolyl]propionyl]-2-methylphenoxy]-2-methylpropionic Acid] | – | 210 | 1300 | 4400 | – | –
